Assay: Laser Diffraction Measurement of Particle Size of primary particles
Format: physicochemical
Conditions: pemafibrate used in Test Examples; Japanese Pharmacopoeia 17th Edition laser diffraction

- d50 value (average particle diameter of primary particles): ≤ 100 μm
- d90 value (average particle diameter of primary particles): ≤ 200 μm
SMILES: CC[C@@H](Oc1cccc(CN(CCCOc2ccc(OC)cc2)c2nc3ccccc3o2)c1)C(=O)O [pemafibrate, (2R)-2-[3-([1,3-Benzoxazol-2-yl[3-(4-methoxyphenoxy)propyl]amino]methyl)phenoxy]butanoic acid]

— US11759456B2, “Pharmaceutical composition” (KOWA COMPANY, LTD., priority 2017, dated 2023)
